US8420820B2, “Pyrrolopyridinylpyrimidin-2-ylamine derivatives” (Merck Patent GmbH, priority 2008, dated 2013)
pIC50: −log10 of the molar value.

Tests used:
PDK1 = molecular target: T1, PDK1 (Homo sapiens, UniProt O15530); test: Test for the inhibition of PDK1 (flashplate, 33P-ATP); format: biochemical; conditions: His6-PDK1 3.4 nM, 4 μM ATP, 30° C., 60 min
T1 construct: His6 (N)
Description: The experimental batches are carried out in a flashplate system with 384 wells/microtitration plate.
In each case, the PDK1 sample His6-PDK1(SEQ ID NO: 2)(1-50)(3.4 nM), the PDK1 substrate biotin-bA-bA-[…] (SEQ ID NO: 3) (400 nM), 4 μM ATP (with 0.2 μCi of ^33P-ATP/well) and the test substance in 50 μl of conventional experimental solution per well are incubated at 30° C. for 60 min. The test substances are employed in corresponding concentrations (if desired in a dilution series). The control is carried out without test substance. The reaction is stopped using standard methods and washed. The activity of the kinase is measured via the incorporated radioactivity in top count. In order to determine the non-specific kinase reaction (blank value), the experimental batches are carried out in the presence of 100 nM staurosporin.
The radioactivity (decompositions per minute) of the blank value (no use of test substance in the presence of staurosporin) is subtracted from all other radioactivity values. The controls (kinase activity without test substance) are set equal to 100 percent and all other radioactivity values (after subtracting the blank value) are expressed set in relation thereto (for example in % of the control).
IC50 values (50% inhibition) are determined with the aid of statistics programmes, such as, for example, RS1.

[1] = system: PDK1 kinase activity in PC3 cells (phospho-T308-PKB); test: Cellular testing of PDK1 kinase inhibitors in PC3 cells (Luminex, phospho-T308-PKB); format: cell-based; conditions: Homo sapiens, PC-3, 0.5 h, 30 min with test substance, serum-free, phospho-T308-PKB by Luminex, read-out: IC50 [PC3 P-PKB Thr308]
Description: Method for the Cellular Testing of PDK1 Kinase Inhibitors in PC3 Cells.
The cellular assay for the determination of the PDK1 kinase activity is carried out as a Luminex assay in the 96-well format. PC3 cells are sown at 20,000 cells per well in 100 μl of medium (45% of […]/45% of Ham's F12/10% of FCS) and incubated on the following day for 30 min with a serial dilution of the test substance (7 concentrations) under serum-free conditions. The cells are subsequently lysed using 90 μl of lysis buffer (20 mM tris/HCl pH 8.0, 150 mM NaCl, 1% of NP40, 10% of glycerol, 1% of phosphatase inhibitor I, 1% of phosphatase inhibitor II, 0.1% of protease inhibitor cocktail III, 0.01% of benzonase) per well, and the lysates are separated off from insoluble cell constituents by means of centrifugation through a 96-well filter plate (0.65 μm). The lysates are incubated overnight at 4° C. with shaking with Luminex beads to which an anti-total PKB antibody is coupled. The detection is carried out on the following day by addition of a phospho-T308-PKB antibody and a species-specific […] secondary antibody. The detection of phospho-T308-PKB is carried out by measurement in a Luminex100 instrument by determination of 100 events per cavity in a measurement time of 60 sec. As pharmacological blank, the signals obtained from cells which have been treated with 10 μM staurosporin are subtracted from all other batches. The control value used for maximum phosphorylation of PKB on T308 are the signals from cells which have only been treated with the solvent (0.3% of DMSO). The values of the batches treated with test substance are calculated therefrom as percentage of control, and IC50 values are determined by means of RS1.

T1 sequence (O15530 51-556): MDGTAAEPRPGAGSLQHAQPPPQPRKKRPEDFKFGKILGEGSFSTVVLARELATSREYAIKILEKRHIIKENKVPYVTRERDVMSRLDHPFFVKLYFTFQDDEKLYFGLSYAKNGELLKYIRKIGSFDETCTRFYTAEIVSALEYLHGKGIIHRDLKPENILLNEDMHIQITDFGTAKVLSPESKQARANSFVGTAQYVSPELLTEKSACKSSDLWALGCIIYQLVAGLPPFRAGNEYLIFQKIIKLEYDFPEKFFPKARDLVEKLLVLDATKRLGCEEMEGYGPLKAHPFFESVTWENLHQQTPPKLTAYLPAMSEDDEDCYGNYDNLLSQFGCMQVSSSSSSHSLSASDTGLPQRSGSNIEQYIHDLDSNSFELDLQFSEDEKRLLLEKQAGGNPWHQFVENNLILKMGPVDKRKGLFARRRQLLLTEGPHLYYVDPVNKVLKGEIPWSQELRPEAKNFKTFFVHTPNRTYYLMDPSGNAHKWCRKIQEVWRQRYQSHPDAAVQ

SMILES | pIC50 (PDK1) | pIC50 [1]
CCCCc1cc(-c2c[nH]c3ncc(-c4cnn(C5CCN(C)CC5)c4)cc23)nc(N)n1 [Compound A89, 4-Butyl-6-{5-[1-(1-methylpiperidin-4-yl)-1H-pyrazol-4-yl]-1H-pyrrolo[2,3-b]-pyridin-3-yl}pyrimidin-2-ylamine] | 6.00 to 8.00 | 5.00 to 6.00
CCc1cc(-c2c[nH]c3ncc(-c4cnn(Cc5cccc(F)c5)c4)cc23)nc(N)n1 [Compound A98, 4-Ethyl-6-{5-[1-(3-fluorobenzyl)-1H-pyrazol-4-yl]-1H-pyrrolo[2,3-b]pyridin-3-yl}pyrimidin-2-ylamine] | 6.00 to 8.00 | 5.00 to 6.00
CCc1cc(-c2c[nH]c3ncc(-c4cnn(Cc5ccc(F)c(F)c5)c4)cc23)nc(N)n1 [Compound A99, 4-{5-[1-(3,4-Difluorobenzyl)-1H-pyrazol-4-yl]-1H-pyrrolo[2,3-b]pyridin-3-yl}-6-ethylpyrimidin-2-ylamine] | 6.00 to 8.00 | 4.70 to 5.00
CC(C)CC(O)c1cc(-c2c[nH]c3ncc(-c4cnn(C(C)C)c4)cc23)nc(N)n1 (centres unmarked) [Compound A104, 1-{2-Amino-6-[5-(1-isopropyl-1H-pyrazol-4-yl)-1H-pyrrolo[2,3-b]pyridin-3-yl]-pyrimidin-4-yl}-3-methylbutan-1-ol] | 6.00 to 8.00 | 5.00 to 6.00
Nc1nc(-c2c[nH]c3ncccc23)cc(C2CCCCC2)n1 [Compound A105, 4-Cyclohexyl-6-(1H-pyrrolo[2,3-b]pyridin-3-yl)pyrimidin-2-ylamine] | 6.00 to 8.00 | 4.70 to 5.00
CC(C)n1cc(-c2cnc3[nH]cc(-c4cc(CCCn5ccnc5)nc(N)n4)c3c2)cn1 [Compound A108, 4-(3-Imidazol-1-ylpropyl)-6-[5-(1-isopropyl-1H-pyrazol-4-yl)-1H-pyrrolo-[2,3-b]pyridin-3-yl]pyrimidin-2-ylamine] | 6.00 to 8.00 | 4.70 to 5.00
CC(C)n1cc(-c2cnc3[nH]cc(-c4cc(C5CCCCC5)nc(N)n4)c3c2)cn1 [Compound A111, 4-Cyclohexyl-6-[5-(1-isopropyl-1H-pyrazol-4-yl)-1H-pyrrolo[2,3-b]pyridin-3-yl]pyrimidin-2-ylamine] | 6.00 to 8.00 | 5.00 to 6.00
Nc1nc(-c2c[nH]c3ncccc23)cc(C2(O)CCN(C(=O)OCc3ccccc3)CC2)n1 [Compound A113, 4-[2-Amino-6-(1H-pyrrolo[2,3-b]pyridin-3-yl)pyrimidin-4-yl]-4-hydroxypiperidine-1-carboxylic acid benzyl ester] | 5.00 to 6.00 | 5.00 to 6.00
CC(C)N1CCC(O)(c2cc(-c3c[nH]c4ncc(-c5cnn(C(C)C)c5)cc34)nc(N)n2)CC1 [Compound A114, 4-{2-Amino-6-[5-(1-isopropyl-1H-pyrazol-4-yl)-1H-pyrrolo[2,3-b]pyridin-3-yl]-pyrimidin-4-yl}-1-isopropylpiperidin-4-ol] | 6.00 to 8.00 | 4.70 to 5.00

More lines, now with the values ahead:

pIC50 (PDK1) | pIC50 [1] | SMILES
6.00 to 8.00 | 4.70 to 5.00 | CC(=O)NCCCc1cc(-c2c[nH]c3ncc(-c4cnn(C(C)C)c4)cc23)nc(N)n1 [Compound A97, N-(3-{2-Amino-6-[5-(1-isopropyl-1H-pyrazol-4-yl)-1H-pyrrolo[2,3-b]pyridin-3-yl]pyrimidin-4-yl}propyl)acetamide]
6.00 to 8.00 | 4.70 to 5.00 | CC(C)n1cc(-c2cnc3[nH]cc(-c4cc(CCC(=O)N(C)C)nc(N)n4)c3c2)cn1 [Compound A101, 3-{2-Amino-6-[5-(1-isopropyl-1H-pyrazol-4-yl)-1H-pyrrolo[2,3-b]pyridin-3-yl]-pyrimidin-4-yl}-N,N-dimethylpropionamide]
6.00 to 8.00 | 4.70 to 5.00 | CCC(O)c1cc(-c2c[nH]c3ncc(-c4cnn(C(C)C)c4)cc23)nc(N)n1 (centres unmarked) [Compound A103, 1-{2-Amino-6-[5-(1-isopropyl-1H-pyrazol-4-yl)-1H-pyrrolo[2,3-b]pyridin-3-yl]-pyrimidin-4-yl}propan-1-ol]
6.00 to 8.00 | 4.70 to 5.00 | CC(C)n1cc(-c2cnc3[nH]cc(-c4cc(CCn5ccnc5)nc(N)n4)c3c2)cn1 [Compound A110, 4-(2-Imidazol-1-ylethyl)-6-[5-(1-isopropyl-1H-pyrazol-4-yl)-1H-pyrrolo[2,3-b]-pyridin-3-yl]pyrimidin-2-ylamine]
